The record followed here is patent publication US6956035B2, “Isoquinoline derivatives and methods of use thereof” (Inotek Pharmaceuticals Corporation, priority 2001, dated 2005).

One test relates to rat. Kind of test: Rat model of middle cerebral artery occlusion/reperfusion. In kind it is in vivo. The conditions noted are these: 3 mg/kg/day i.p. How it is done: Occlusion lasted for 2 hours, followed by reperfusion for 24 hours. Infarct size was quantified with tetrazolium staining. […] There was an approximately 80% reduction in the degree of cortical necrosis and neuronal death in the animals administered with 8l, when compared to vehicle-treated controls.

The next test has as its target T1, purified PARS enzyme (Homo sapiens, UniProt P09874).
T1 construct: purchased Trevigen, Gaithersburg, Md
Kind of test: Purified PARS enzyme inhibition assay (Trevigen kit, 96 well ELISA plates). The settings on record: starred values: tested in purified enzyme assay. In kind it is biochemical. How it is done:
The assay was performed in 96 well ELISA plates according to instructions provided with a commercially available PARS inhibition assay kit (Trevigen, Gaithersburg, Md.). Briefly, wells were coated with 1 mg/mL histone (50 μl/well) at 4° C. overnight. Plates were then washed four times with PBS and then blocked by adding 50 μl Strep-Diluent (supplied with the kit). After incubation (1 h, room temperature), the plates were washed four times with PBS. Appropriate dilutions of PARS inhibitors were combined with 2×PARS cocktail (1.95 mM NAD^+, 50 μM biotinylated NAD^+ in 50 mM TRIS pH 8.0, 25 mM MgCl2) and high specific activity PARS enzyme (both were supplied with the kit) in a volume of 50 μl. The reaction was allowed to proceed for 30 min at room temperature. After 4 washes in PBS, incorporated biotin was detected by peroxidase-conjugated streptavidin (1:500 dilution) and TACS Sapphire substrate.

A further test has as its system mice. The experiment in a line: Single high-dose streptozotocin model of diabetes. The test is classed as in vivo. The settings on record: 3 mg/kg i.p.; STZ 160 mg/kg; blood sugar 3 days later; STZ + Vehicle 320 ± 13, basal 153 ± 21. How it is done:
PARS inhibitors and PARS deficiency are known to reduce the development of diabetes and the incidence of diabetic complications (Mabley et al., Br J Pharmacol. 2001, 133(6):909-9; and Soriano et al., Nat Med. 2001, 7(1):108-13). […] Briefly, 160 mg/kg streptozotocin was injected to mice treated with vehicle or with illustrative Isoquinoline Derivatives intraperitoneally (3 mg/kg) and 3 days later blood sugar levels were determined using a blood glucose meter.

For another test, the system named is TNF-alpha. The experiment in a line: LPS induced TNF production in mice in vivo. The settings on record: LPS 10 mg/kg i.p., plasma at 90 minutes, vehicle 6994.0.
In another test the target is T2, PARS (Mus musculus, UniProt P11103).
T2 construct: endogenous in cells; host or cells: RAW mouse macrophages
Kind of test: PARS activation in peroxynitrite-stimulated cultured RAW macrophages (whole-cell assay, 3H-NAD+ incorporation). The test is classed as cell-based. The settings on record: cultured murine macrophages; for inhibition at 0.1 µM / % PARS inhibition at 100 nM: 100 nM. Here is the method:
RAW mouse macrophages were cultured in DMEM medium with high glucose and supplemented with 10% fetal bovine serum. Cells were used at 80% confluence in 12-well plates. Cells were pretreated with various concentrations (100 nM-1 μM) of an Isoquinoline Derivative for 10 min. Peroxynitrite, a prototypical oxidant which induces DNA single strand breakage, was used to induce PARS activation. Peroxynitrite was diluted in phosphate buffered saline (PBS) (pH 11.0) and added to the cells in a bolus of 50 μl. Cells were then incubated for 20 min. […] Following an incubation in assay buffer, (10 min at 37° C.), PARS activity was measured as follows: 200 μl ice cold 50% w/v TCA was added and the samples were incubated for 4 hours at 4° C. Samples were then spun (10 min@10,000 g) and pellets washed twice with ice cold 5% w/v TCA and solubilized overnight in 250 μl 2% w/v SDS/0.1 N NaOH at 37° C. The contents of the tubes were added to 6.5 ml ScintiSafe Plus scintillation liquid (Fisher Scientific) and radioactivity was determined using a liquid scintillation counter (Wallac, Gaithersburg, Md.).

The structures appear in SMILES notation. Marks after values point to notes of the source that are not given here.

T2 sequence (P11103 whole entry): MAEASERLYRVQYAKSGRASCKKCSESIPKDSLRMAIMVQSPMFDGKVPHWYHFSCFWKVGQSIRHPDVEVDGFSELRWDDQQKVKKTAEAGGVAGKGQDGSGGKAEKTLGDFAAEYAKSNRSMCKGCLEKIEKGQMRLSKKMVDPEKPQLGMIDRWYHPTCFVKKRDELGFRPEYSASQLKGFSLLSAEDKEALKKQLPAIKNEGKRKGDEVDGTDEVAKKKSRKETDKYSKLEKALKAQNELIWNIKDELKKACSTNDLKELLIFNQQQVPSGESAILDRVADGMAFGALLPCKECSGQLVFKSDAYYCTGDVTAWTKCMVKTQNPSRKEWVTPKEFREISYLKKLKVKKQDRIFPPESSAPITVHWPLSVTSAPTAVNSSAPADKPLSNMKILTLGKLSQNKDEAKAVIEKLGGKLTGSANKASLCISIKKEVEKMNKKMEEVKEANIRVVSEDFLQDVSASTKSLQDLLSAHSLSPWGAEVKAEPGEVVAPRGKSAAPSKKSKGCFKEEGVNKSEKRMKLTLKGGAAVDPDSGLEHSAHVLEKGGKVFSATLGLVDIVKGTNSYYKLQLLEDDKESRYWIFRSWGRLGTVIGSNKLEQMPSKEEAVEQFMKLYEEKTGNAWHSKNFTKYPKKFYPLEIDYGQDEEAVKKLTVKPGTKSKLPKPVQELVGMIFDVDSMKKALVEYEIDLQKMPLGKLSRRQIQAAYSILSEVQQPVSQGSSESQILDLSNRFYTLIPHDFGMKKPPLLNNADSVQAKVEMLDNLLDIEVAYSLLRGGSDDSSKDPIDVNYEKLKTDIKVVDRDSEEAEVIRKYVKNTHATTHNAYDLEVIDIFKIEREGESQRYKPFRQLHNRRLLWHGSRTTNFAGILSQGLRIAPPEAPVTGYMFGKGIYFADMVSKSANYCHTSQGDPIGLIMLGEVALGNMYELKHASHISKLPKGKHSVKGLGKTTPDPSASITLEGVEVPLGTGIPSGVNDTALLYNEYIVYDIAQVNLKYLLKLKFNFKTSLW
T1 sequence (P09874 whole entry): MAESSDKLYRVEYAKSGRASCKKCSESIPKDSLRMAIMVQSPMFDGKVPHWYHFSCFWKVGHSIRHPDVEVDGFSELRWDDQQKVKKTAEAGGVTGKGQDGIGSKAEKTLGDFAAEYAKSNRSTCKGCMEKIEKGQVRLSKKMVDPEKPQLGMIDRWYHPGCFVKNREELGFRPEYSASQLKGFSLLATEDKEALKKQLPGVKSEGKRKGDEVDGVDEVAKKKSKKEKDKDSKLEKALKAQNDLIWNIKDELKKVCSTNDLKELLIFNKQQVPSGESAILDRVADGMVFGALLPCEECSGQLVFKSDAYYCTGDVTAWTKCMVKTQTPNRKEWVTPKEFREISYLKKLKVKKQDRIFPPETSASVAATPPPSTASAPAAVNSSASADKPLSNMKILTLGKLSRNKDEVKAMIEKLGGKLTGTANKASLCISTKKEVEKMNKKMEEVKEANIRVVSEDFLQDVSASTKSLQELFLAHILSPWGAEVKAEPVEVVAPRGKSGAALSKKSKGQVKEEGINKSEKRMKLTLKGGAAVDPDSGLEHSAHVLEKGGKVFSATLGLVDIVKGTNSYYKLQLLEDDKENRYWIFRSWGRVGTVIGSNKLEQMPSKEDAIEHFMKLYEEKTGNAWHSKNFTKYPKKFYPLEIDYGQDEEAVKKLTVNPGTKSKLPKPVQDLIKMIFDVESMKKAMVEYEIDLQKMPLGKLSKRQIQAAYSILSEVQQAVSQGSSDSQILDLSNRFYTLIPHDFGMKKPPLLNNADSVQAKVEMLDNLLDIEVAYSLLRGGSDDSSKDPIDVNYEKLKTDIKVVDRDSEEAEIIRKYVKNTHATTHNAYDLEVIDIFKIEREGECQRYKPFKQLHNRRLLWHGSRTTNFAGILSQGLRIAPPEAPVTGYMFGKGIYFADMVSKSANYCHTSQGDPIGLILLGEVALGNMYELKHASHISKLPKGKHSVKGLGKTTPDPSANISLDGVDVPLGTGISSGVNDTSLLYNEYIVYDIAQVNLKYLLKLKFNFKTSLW

Regarding `O=c1[nH]c2c(c3ccccc13)Cc1cc(S(=O)(=O)NCCCN3CCOCC3)ccc1-2` [Compound 8l, 9-[N-(3-[morpholino-4-yl]propyl)-aminosulphonyl]-5,6-dihydro-5-oxo-11H-indeno-[1,2-c]isoquinoline], the functional benefit result in the test with rat is given as “neurological improvements”.

For the compound `COc1cccc2c1oc1c3ccccc3c(=O)[nH]c21` [Compound 22d], 1 µM produced 13% inhibition at purified PARS enzyme (1 μM).

As for `CCN(CC)CCN(CCN(CC)CC)S(=O)(=O)c1ccc2c(c1)Cc1c-2[nH]c(=O)c2ccccc12` [Compound 8p, 9-[N,N-di-(2-[N,N-diethylamino]ethyl)-aminosulphonyl]-5,6-dihydro-5-oxo-11H-indeno-[1,2-c]isoquinoline], the Glucose with mice turned out to be 264 ± 24 mg/dL. Besides, the TNF with TNF-alpha (0.1 mg/kg i.p. pretreatment) was 4470 pg/mL; with TNF-alpha (1.0 mg/kg i.p. pretreatment) it was 5090 pg/mL. The inhibition at 0.1 µM against PARS was 27%. This compound also yielded an inhibition at 0.3 µM at PARS (300 nM) of 45%.

As to `O=c1[nH]c2c(c3ccccc13)C(N1CCNCC1)c1ccccc1-2` (racemic) [Compound 5c, (±) 11-piperizin-5,6-dihydro-5-oxo-11H-indeno[1,2-c]isoquinoline], at PARS, the “% PARS inhibition at 100 nM” value came out at 0% and the “% PARS inhibition at 1 μM” value turned out to be 24%.

With `CN(C)CCN(CCN(C)C)S(=O)(=O)c1ccc2c(c1)Cc1c-2[nH]c(=O)c2ccccc12` [Compound 8q, 9-[N,N-di-(2-[N,N-dimethylamino]ethyl)-aminosulphonyl]-5,6-dihydro-5-oxo-11H-indeno-[1,2-c]isoquinoline], testing at 0.1 µM on PARS gave an inhibition of 20%. Further, on PARS (300 nM), at 0.3 µM the inhibition was 28%.

Regarding `O=c1[nH]c2c3ccccc3[nH]c2c2ccccc12` [Compound 31, 6H,11H-Indole-[3,2-C]-Isoquinoline-5-one], the “% PARS inhibition at 100 nM” value on PARS is reported as 18%.

On PARS, `O=c1[nH]c2c3ccccc3oc2c2ccccc12` [Compound 22a] showed an inhibition at 0.1 µM of 51% and an inhibition at 1 µM of 81%.

On to `CN1CCN(C2c3ccccc3-c3[nH]c(=O)c4ccccc4c32)CC1` (racemic) [Compound 5d, (±) 11-(N-methylpiperazin)-5,6-dihydro-5-oxo-11H-indeno[1,2-c]isoquinoline], for which the “% PARS inhibition at 1 μM” value at PARS was 48%.

With `O=c1[nH]c2c3ccc(S(=O)(=O)O)cc3n(S(=O)(=O)O)c2c2ccccc12` [Compound 34], at purified PARS enzyme, the “% PARS inhibition at 100 nM” value is given as 14* %. Moreover, at purified PARS enzyme (300 nM), the “% PARS inhibition at 300 nM” value was 33* %.

Take `O=C(O)c1ccc2c(c1)oc1c3ccccc3c(=O)[nH]c21` [Compound 22g]: the inhibition at 0.3 µM on PARS (300 nM) was 23%. Moreover, at PARS, the inhibition at 1 µM is 27%.

In the case of `COc1ccc2c(c1)oc1c3ccccc3c(=O)[nH]c21` [Compound 22c], at PARS, the inhibition at 0.1 µM is 62% and the inhibition at 1 µM is 83%. The same compound registered an inhibition at 0.3 µM at PARS (300 nM) of 66%.

`O=c1[nH]c2c(c3ccccc13)Cc1cc(S(=O)(=O)N3CCC[C@H]3CO)ccc1-2` [Compound 8e, 9-[N-(2-hydroxyprolinyl)sulphonyl]-5,6-dihydro-5-oxo-11H-indeno[1,2-c]isoquinoline]: at PARS (300 nM), the “% PARS inhibition at 300 nM” value came out at 68%.

At PARS, `O=c1[nH]c2c3cccc(O)c3oc2c2ccccc12` [Compound 23c] showed an inhibition at 0.1 µM of 63% and an inhibition at 1 µM of 63%. Further, the inhibition at 0.3 µM on PARS (300 nM) was determined as 66%.

As for `NS(=O)(=O)c1ccc2c3[nH]c(=O)c4ccccc4c3n(S(N)(=O)=O)c2c1` [Compound 35a, 6H,11H-Indole-[3,2-C]-Isoquinoline-5-one-9,11-disulfonamide], at PARS, the “% PARS inhibition at 100 nM” value is given as 14% and the “% PARS inhibition at 1 μM” value was 75%.

Compound `O=C(O)c1ccc2oc3c4ccccc4c(=O)[nH]c3c2c1` [Compound 22f] displayed an inhibition at 0.3 µM on PARS (300 nM) of 23%. The same compound yielded an inhibition at 1 µM against PARS of 27%.

As to `O=c1[nH]c2c(c3ccccc13)Cc1cc(S(=O)(=O)NCCN3CCOCC3)ccc1-2` [Compound 8j, 9-[N-(2-[morpholino-4-yl]ethyl)-aminosulphonyl]-5,6-dihydro-5-oxo-11H-indeno[1,2-c]isoquinoline], the Glucose with mice was 253 ± 24.

At PARS, `Cc1ccc2oc3c4ccccc4c(=O)[nH]c3c2c1` [Compound 22e] had an inhibition at 0.1 µM of 38% and an inhibition at 1 µM of 53%. This compound also displayed an inhibition at 0.3 µM at PARS (300 nM) of 56%.

With `O=C(O)CCNC(=O)c1ccc2oc3c4ccccc4c(=O)[nH]c3c2c1` [Compound 26b], the “% PARS inhibition at 100 nM” value on purified PARS enzyme is 21* %.
